According to patent US8168592B2 (Amgen Inc., priority 2005, dated 2012):
Read-outs that look alike come from different tables or passages of the source. Square brackets hold non-standard residues; d marks the D form. Peptide text beside a SMILES is read from it. Oic = O=C(O)[C@@H]1C[C@@H]2CCCC[C@@H]2N1; 1Nal = N[C@@H](Cc1cccc2ccccc12)C(=O)O; 2Nal = N[C@@H](Cc1ccc2ccccc2c1)C(=O)O; hArg = N=C(N)NCCCC[C@H](N)C(=O)O; Tic = O=C(O)[C@@H]1Cc2ccccc2CN1; Cit = NC(=O)NCCC[C@H](N)C(=O)O

Target: T1, CGRP1 receptor (Homo sapiens, UniProt O60894+Q16602)
T1 construct: SK-N-MC cells express CRLR and RAMP1, which form CGRP1 receptor; endogenous in cells; host or cells: SK-N-MC human neuroblastoma cells
T1 sequence (Q16602 23-461): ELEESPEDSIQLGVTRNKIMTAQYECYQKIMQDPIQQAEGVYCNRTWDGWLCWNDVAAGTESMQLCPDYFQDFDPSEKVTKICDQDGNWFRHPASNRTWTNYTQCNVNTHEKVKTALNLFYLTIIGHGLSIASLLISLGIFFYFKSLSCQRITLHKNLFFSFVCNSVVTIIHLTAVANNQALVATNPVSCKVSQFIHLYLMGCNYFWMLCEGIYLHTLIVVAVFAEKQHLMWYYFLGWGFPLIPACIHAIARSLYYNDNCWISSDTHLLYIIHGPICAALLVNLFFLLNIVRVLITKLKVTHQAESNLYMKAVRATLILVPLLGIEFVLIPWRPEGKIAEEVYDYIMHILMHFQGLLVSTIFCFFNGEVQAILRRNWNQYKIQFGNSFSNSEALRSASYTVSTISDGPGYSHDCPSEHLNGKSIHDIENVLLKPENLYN
T1 sequence (O60894 27-148): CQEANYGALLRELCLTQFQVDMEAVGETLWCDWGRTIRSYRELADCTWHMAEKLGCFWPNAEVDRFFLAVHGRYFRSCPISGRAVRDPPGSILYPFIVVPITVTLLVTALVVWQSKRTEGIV
Assay: in vitro CGRP1 receptor mediated cAMP assay in SK-N-MC cells
Assay type: cell-based
Description: The in vitro cAMP assay employed a human neuroblastoma-derived cell line (SK-N-MC). SK-N-MC cells express CRLR and RAMP1, which form CGRP1 receptor. CGRP1 receptor is a G-protein coupled receptor linked to the stimulatory G-protein, Gs. […] Briefly, two days before the assay, the cells were plated in 96-well plates in growth medium. On the day of the assay cells were rinsed with PBS followed by the addition of 60 μl of plasma free medium for 15 minutes at room temperature. […] The medium was then removed and the cells were lysed with 100 μl lysis buffer for 30 minutes at 37° C. for 30 minutes. Using a Tropix ELISA kit (Applied Biosystems, Foster City, Calif.), a cAMP-AP conjugate was diluted (1:100) and added (30 μl) to each well of a 96-well ELISA plate. An aliquot of the lysis buffer from the cell plate was then added to the ELISA plate followed by an aliquot of the cAMP antibody. This mixture was incubated for 1 hour at room temperature with gentle shaking. The ELISA plate was then washed 6× with wash buffer followed by the additions of a substrate enhancer. This mixture was incubated for 30 minutes at room temperature and then read on a MicroBeta Jet or EnVision plate reader. The results were analyzed using Prism (GraphPad).

[1] = Table 2C, unconjugated peptide, read-out: Peptide IC50

IC50 (Table 2A, read-out: IC50) [nM]	IC50 [1] [nM]	Compound
89.9		CC(=O)N[C@@H](Cc1c[nH]c2ccccc12)C(=O)N[C@H](C(=O)N[C@H](C(=O)N[C@@H](Cc1cnc[nH]1)C(=O)N[C@@H](CCCNC(N)=O)C(=O)N[C@@H](CC(C)C)C(=O)N[C@@H](C)C(=O)NCC(=O)N[C@@H](CC(C)C)C(=O)N[C@@H](CC(C)C)C(=O)N[C@@H](CO)C(=O)N[C@@H](CCCNC(N)=O)C(=O)N[C@@H](CO)C(=O)NCC(=O)NCC(=O)N[C@H](C(=O)N[C@H](C(=O)N[C@@H](CCCCN=C(N)N)C(=O)N[C@@H](CCCCN)C(=O)N[C@@H](CC(N)=O)C(=O)N[C@@H](Cc1ccccc1)C(=O)N[C@H](C(=O)N1CCC[C@H]1C(=O)N[C@H](C(=O)N[C@@H](CC(=O)O)C(=O)N[C@H](C(=O)NCC(=O)N1CCC[C@H]1C(=O)N1Cc2ccccc2C[C@H]1C(=O)N[C@@H](C)C(=O)N[C@@H](Cc1ccccc1)C(N)=O)C(C)C)[C@@H](C)O)C(C)C)C(C)C)C(C)C)[C@@H](C)O)C(C)C [compound 131] (Ac-WVTH[Cit]LAGLLS[Cit]SGGVV[hArg]KNFVPTDVGP[Tic]AF-NH2)
	0.88	CC(=O)N[C@@H](Cc1c[nH]c2ccccc12)C(=O)N[C@H](C(=O)N[C@H](C(=O)N[C@@H](Cc1c[nH]cn1)C(=O)N[C@@H](CCCNC(N)=O)C(=O)N[C@@H](CC(C)C)C(=O)N[C@@H](C)C(=O)NCC(=O)N[C@@H](CC(C)C)C(=O)N[C@@H](CC(C)C)C(=O)N[C@@H](CO)C(=O)N[C@@H](CCCNC(N)=O)C(=O)N[C@@H](CO)C(=O)NCC(=O)NCC(=O)N[C@H](C(=O)N[C@H](C(=O)N[C@@H](CCCCNC(=N)N)C(=O)N[C@@H](CCCCN)C(=O)N[C@@H](CC(N)=O)C(=O)N[C@@H](Cc1ccccc1)C(=O)N[C@H](C(=O)N1CCC[C@H]1C(=O)N[C@H](C(=O)N[C@@H](CC(=O)O)C(=O)N[C@H](C(=O)NCC(=O)N1[C@H](C(=O)N[C@@H](Cc2cccc3ccccc23)C(=O)N[C@@H](C)C(=O)N[C@@H](Cc2ccccc2)C(N)=O)C[C@@H]2CCCC[C@@H]21)C(C)C)[C@@H](C)O)C(C)C)C(C)C)C(C)C)[C@@H](C)O)C(C)C [compound 933] (Ac-WVTH[Cit]LAGLLS[Cit]SGGVV[hArg]KNFVPTDVG[Oic][1Nal]AF-NH2)
3.57		CC(=O)N[C@@H](Cc1c[nH]c2ccccc12)C(=O)N[C@H](C(=O)N[C@H](C(=O)N[C@@H](Cc1c[nH]cn1)C(=O)N[C@@H](CCCNC(N)=O)C(=O)N[C@@H](CC(C)C)C(=O)N[C@@H](C)C(=O)NCC(=O)N[C@@H](CC(C)C)C(=O)N[C@@H](CC(C)C)C(=O)N[C@@H](CO)C(=O)N[C@@H](CCCNC(N)=O)C(=O)N[C@@H](CO)C(=O)NCC(=O)NCC(=O)N[C@H](C(=O)N[C@H](C(=O)N[C@@H](CCCCNC(=N)N)C(=O)N[C@@H](CCCCN)C(=O)N[C@@H](CC(N)=O)C(=O)N[C@@H](Cc1ccc2ccccc2c1)C(=O)N[C@H](C(=O)N1[C@H](C(=O)N[C@H](C(=O)N[C@@H](CC(=O)O)C(=O)N[C@H](C(=O)NCC(=O)N2[C@H](C(=O)N[C@@H](Cc3ccccc3)C(=O)N[C@@H](C)C(=O)N[C@@H](Cc3ccc4ccccc4c3)C(N)=O)C[C@@H]3CCCC[C@@H]32)C(C)C)[C@@H](C)O)C[C@@H]2CCCC[C@@H]21)C(C)C)C(C)C)C(C)C)[C@@H](C)O)C(C)C [compound 139] (Ac-WVTH[Cit]LAGLLS[Cit]SGGVV[hArg]KN[2Nal]V[Oic]TDVG[Oic]FA[2Nal]-NH2)
	0.58	CC(=O)N[C@@H](Cc1c[nH]c2ccccc12)C(=O)N[C@H](C(=O)N[C@H](C(=O)N[C@@H](Cc1cnc[nH]1)C(=O)N[C@@H](CCCNC(=N)N)C(=O)N[C@@H](CC(C)C)C(=O)N[C@@H](C)C(=O)NCC(=O)N[C@@H](CC(C)C)C(=O)N[C@@H](CC(C)C)C(=O)N[C@@H](CO)C(=O)N[C@@H](CCCNC(N)=O)C(=O)N[C@@H](CO)C(=O)NCC(=O)NCC(=O)N[C@H](C(=O)N[C@H](C(=O)N[C@@H](CCCN=C(N)N)C(=O)N[C@@H](CCCCN)C(=O)N[C@@H](CC(N)=O)C(=O)N[C@@H](Cc1ccccc1)C(=O)N[C@H](C(=O)N1CCC[C@H]1C(=O)N[C@H](C(=O)N[C@@H](CC(=O)O)C(=O)N[C@H](C(=O)NCC(=O)N1CCC[C@H]1C(=O)N[C@@H](Cc1ccccc1)C(=O)N[C@@H](C)C(=O)N[C@@H](Cc1ccccc1)C(N)=O)C(C)C)[C@@H](C)O)C(C)C)C(C)C)C(C)C)[C@@H](C)O)C(C)C [compound 862]
